Patent publication US20050171353A1, “Piperidine or 8-aza-bicyclo[3.2.1]oct-3-yl derivatives useful as modulators of chemokine receptor activity (especially ccr5)” (priority 2002, published 2005)

molecular target: recombinant human CCR5 receptor (Homo sapiens, UniProt P51681); experiment: in vitro radioligand binding assay (inhibition of binding of RANTES or MIP-1α), scintillation proximity; conditions: membranes from Chinese hamster ovary cells expressing recombinant human CCR5; 0.1 nM iodinated RANTES or MIP-1α; average if tested more than once
Description: The ability of compounds to inhibit the binding of RANTES or MIP-1α was assessed by an in vitro radioligand binding assay. Membranes were prepared from Chinese hamster ovary cells which expressed the recombinant human CCR5 receptor. These membranes were incubated with 0.1 nM iodinated RANTES or MIP-1α, scintillation proximity beads and various concentrations of the compounds of the invention in 96-well plates. The amount of iodinated RANTES or MIP-1α bound to the receptor was determined by scintillation counting.
In Table IV the results are presented as Pic50 values.

Sequence of recombinant human CCR5 receptor (P51681 whole entry): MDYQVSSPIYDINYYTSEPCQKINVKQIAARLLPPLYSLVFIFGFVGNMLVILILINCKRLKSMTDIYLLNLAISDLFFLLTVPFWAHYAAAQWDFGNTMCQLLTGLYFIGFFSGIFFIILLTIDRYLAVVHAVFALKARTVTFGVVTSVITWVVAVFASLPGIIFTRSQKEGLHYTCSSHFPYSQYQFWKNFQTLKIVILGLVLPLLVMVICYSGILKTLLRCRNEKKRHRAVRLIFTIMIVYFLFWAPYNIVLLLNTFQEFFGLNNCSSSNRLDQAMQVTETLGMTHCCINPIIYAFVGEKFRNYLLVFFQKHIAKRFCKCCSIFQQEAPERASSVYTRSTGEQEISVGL

| Compound | Pic50 | IC50 [nM] |
| --- | --- | --- |
| CCN(C(=O)Cc1ccc(S(C)(=O)=O)cc1)C1CCN(CC[C@H](NC(=O)N2CC[C@@H](F)C2)c2ccccc2)CC1 [Table 1 Compound 3, (S)—N-[1-(3-Phenyl-3-[(R)-3-fluoropyrrolidin-1-ylcarboxyamino]propyl)-4-piperidinyl]-N-ethyl4-methanesulfonylphenylacetamide] | 7.76 |  |
| (S)—N-[1-(3-[3,5-Difluorophenyl]-3-[3,3-difluorocyclobutylcarboxyamino]propyl)-4-piperidinyl]-N-ethyl-4-methanesulfonylphenylacetamide hydrochloride [Table 1 Compound 6] | 8.65 |  |
| N-[1-((4S)-4-Phenyl-4-[3,3-difluorocyclobutylcarboxyamino]but-2-yl)-4-piperidinyl]-N-ethyl-4-methanesulfonylphenylacetamide hydrochloride [Table 3 Compound 8] | 9.15 |  |
| CCN(C(=O)Cc1ccc(S(C)(=O)=O)cc1)C1CCN(CC[C@H](NC(=O)N2CCC(F)CC2)c2ccccc2)CC1 [Table 1 Compound 2, (S)—N-[1-(3-phenyl-3-[4-fluoropiperidin-1-ylcarboxyamino]propyl)-4-piperidinyl]-N-ethyl-4-methanesulfonylphenylacetamide] | 7.68 |  |
| CCN(C(=O)Cc1ccc(S(C)(=O)=O)cc1)C1CCN(CC[C@H](NC(=O)C2CCC(F)(F)CC2)c2ccccc2)CC1 [Table 1 Compound 1, (S)—N-[1-(3-phenyl-3-[4,4-difluorocyclohexylcarboxyamino]propyl)-4-piperidinyl]-N-ethyl-4-methanesulfonylphenylacetamide] | 8.95 |  |
| CCN(C(=O)Cc1ccc(S(C)(=O)=O)cc1)[C@@H]1C[C@H]2CC[C@@H](C1)N2CC[C@H](NC(=O)C1CCC(F)(F)CC1)c1ccccc1 [Table 2 Compound 1, (S)-4,4-difluoro-cyclohexanecarboxylic acid[3-(3-{ethyl-[2-(4-methanesulfonyl-phenyl)-acetyl]-amino}-8-aza-bicyclo[3.2.1]oct-8-yl-exo)-1-phenyl-propyl]-amide] |  | 3.31 |
